# From ChEMBL document CHEMBL1141174, “Quantitative structure-activity relationship analysis of inhibitors of the nicotine metabolizing CYP2A6 enzyme” (J Med Chem, 2005)
# T1: Cytochrome P450 2A6 (Homo sapiens, UniProt P11509)
# T1 sequence (P11509 whole entry): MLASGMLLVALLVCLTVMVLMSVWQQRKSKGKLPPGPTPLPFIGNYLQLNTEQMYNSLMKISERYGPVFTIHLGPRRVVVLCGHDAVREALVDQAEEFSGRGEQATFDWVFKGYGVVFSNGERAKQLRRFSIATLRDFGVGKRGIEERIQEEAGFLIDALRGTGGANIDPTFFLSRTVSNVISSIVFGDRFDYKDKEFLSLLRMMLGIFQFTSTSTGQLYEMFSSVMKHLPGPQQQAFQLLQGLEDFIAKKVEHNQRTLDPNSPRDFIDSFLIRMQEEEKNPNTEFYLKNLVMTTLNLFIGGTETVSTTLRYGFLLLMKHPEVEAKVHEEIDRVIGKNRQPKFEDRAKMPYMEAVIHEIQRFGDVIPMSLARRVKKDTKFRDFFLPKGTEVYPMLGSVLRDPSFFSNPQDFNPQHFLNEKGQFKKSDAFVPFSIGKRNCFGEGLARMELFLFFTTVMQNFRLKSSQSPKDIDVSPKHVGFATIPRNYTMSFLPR
# T2: Cytochrome P450 2A5 (Mus musculus, UniProt P20852)
# T2 sequence (P20852 whole entry): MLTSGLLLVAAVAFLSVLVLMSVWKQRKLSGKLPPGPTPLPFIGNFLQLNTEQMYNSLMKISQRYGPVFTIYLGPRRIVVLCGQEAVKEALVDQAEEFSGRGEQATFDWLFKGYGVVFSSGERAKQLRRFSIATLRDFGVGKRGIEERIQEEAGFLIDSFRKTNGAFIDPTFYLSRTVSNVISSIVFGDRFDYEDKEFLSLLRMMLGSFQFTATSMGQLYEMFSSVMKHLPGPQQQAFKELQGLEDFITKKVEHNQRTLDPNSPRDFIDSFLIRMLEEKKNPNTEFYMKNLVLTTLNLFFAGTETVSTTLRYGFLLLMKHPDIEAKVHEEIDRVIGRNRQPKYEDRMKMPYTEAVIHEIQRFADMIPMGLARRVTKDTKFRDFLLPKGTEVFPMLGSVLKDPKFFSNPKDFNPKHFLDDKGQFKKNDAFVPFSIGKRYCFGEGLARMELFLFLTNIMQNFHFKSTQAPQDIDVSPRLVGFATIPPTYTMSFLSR
# T3: CYP2A6 (Homo sapiens, UniProt P11509)
# T3 sequence (P11509 whole entry): T1 sequence (P11509 whole entry)
# B1: Cytochrome P450 2A5 (Mus musculus) (protein)
# chain: T2 sequence (P20852 whole entry)
# Tests used:
# Cytochrome P450 2A6 = molecular target: T1, Cytochrome P450 2A6; assay: Inhibitory concentration against human cytochrome P450 2A6
# CYP2A6 / CYP2A5 = assay: Ratio of IC50 for human CYP2A6 to that of mouse CYP2A5 was determined
# Cytochrome P450 2A5 = molecular target: T2, Cytochrome P450 2A5; assay: Inhibitory concentration against mouse cytochrome P450 2A5
# CYP2A6 = molecular target: T3, CYP2A6; assay: Michaelis-Menten constant of compound against human cytochrome P450 2A6 enzyme; assay type: ADME
# [1] = substrate: O=c1ccc2ccccc2o1; assay: Michaelis-Menten constant of compound against mouse cytochrome P450 2A5 enzyme; assay type: ADME
molecule,measurement,setting,value
CC(=O)c1ccc2ccc(C)cc2c1,IC50,Cytochrome P450 2A6,6.7 µM
same,selectivity ratio,CYP2A6 / CYP2A5,1.6
same,IC50,Cytochrome P450 2A5,4.1 µM
Cc1nccc2ccccc12,IC50,Cytochrome P450 2A6,60 µM
same,selectivity ratio,CYP2A6 / CYP2A5,0.36
same,IC50,Cytochrome P450 2A5,170 µM
Clc1ccc2ccc(Cl)cc2c1,IC50,Cytochrome P450 2A6,> 100 µM
same,IC50,Cytochrome P450 2A5,4.4 µM
NCCc1ccccc1 [PHENETHYLAMINE],IC50,Cytochrome P450 2A6,38.9 µM
same,IC50,Cytochrome P450 2A5,1000 µM
O=c1ccc2ccccc2o1 [COUMARIN],Km,CYP2A6,0.74 µM
O=C1CCc2ccccc2C1,IC50,Cytochrome P450 2A6,21 µM
same,selectivity ratio,CYP2A6 / CYP2A5,2.2
same,IC50,Cytochrome P450 2A5,9.7 µM
Cc1cccc2c(C)cccc12,IC50,Cytochrome P450 2A6,31 µM
same,selectivity ratio,CYP2A6 / CYP2A5,0.91
same,IC50,Cytochrome P450 2A5,34 µM
Cc1ccc2ccccc2n1 [QUINALDINE],IC50,Cytochrome P450 2A6,190 µM
same,selectivity ratio,CYP2A6 / CYP2A5,2.4
same,IC50,Cytochrome P450 2A5,80 µM
Cc1ccc2cccc(C)c2c1,IC50,Cytochrome P450 2A6,31 µM
same,selectivity ratio,CYP2A6 / CYP2A5,1.2
same,IC50,Cytochrome P450 2A5,14 µM
Cc1ccc2cc(C)ccc2c1,IC50,Cytochrome P450 2A6,10 µM
same,selectivity ratio,CYP2A6 / CYP2A5,5.9
same,IC50,Cytochrome P450 2A5,1.7 µM
Cc1cnc2ccccc2c1,IC50,Cytochrome P450 2A6,200 µM
same,selectivity ratio,CYP2A6 / CYP2A5,1.9
same,IC50,Cytochrome P450 2A5,100 µM
Cc1ccc2ccccc2c1,IC50,Cytochrome P450 2A6,2.4 µM
same,selectivity ratio,CYP2A6 / CYP2A5,0.34
same,IC50,Cytochrome P450 2A5,7 µM
Clc1cc2cc(Cl)c(Cl)c(Cl)c2cc1Cl,IC50,Cytochrome P450 2A6,> 600 µM
same,IC50,Cytochrome P450 2A5,300 µM
O=Cc1ccccc1 [BENZALDEHYDE],IC50,Cytochrome P450 2A6,3.92 µM
same,IC50,Cytochrome P450 2A5,3.28 µM
Cc1ccc2c(C)cccc2c1,IC50,Cytochrome P450 2A6,130 µM
same,selectivity ratio,CYP2A6 / CYP2A5,4
same,IC50,Cytochrome P450 2A5,32 µM
"CN1C(=O)CCC1c1cccnc1 (single isomer, unassigned) [COTININE]",selectivity ratio,CYP2A6 / CYP2A5,42.8
same,IC50,Cytochrome P450 2A5,1500 µM
COc1cc2c(cc1OC)CC(=O)CC2,IC50,Cytochrome P450 2A6,2000 µM
same,selectivity ratio,CYP2A6 / CYP2A5,9.2
same,IC50,Cytochrome P450 2A5,210 µM
Clc1ccccc1-c1ccccc1,IC50,Cytochrome P450 2A6,36 µM
same,selectivity ratio,CYP2A6 / CYP2A5,2.8
same,IC50,Cytochrome P450 2A5,13 µM
Clc1ccc2ccccc2c1,IC50,Cytochrome P450 2A6,5.4 µM
same,selectivity ratio,CYP2A6 / CYP2A5,0.45
same,IC50,Cytochrome P450 2A5,12 µM
Cc1ccc(CCN)cc1,IC50,Cytochrome P450 2A6,5.3 µM
same,IC50,Cytochrome P450 2A5,4 µM
Cc1ccc2ccc(C)cc2c1,IC50,Cytochrome P450 2A6,1.7 µM
same,IC50,Cytochrome P450 2A5,1.4 µM
Clc1ccc2ccccc2c1Cl,IC50,Cytochrome P450 2A6,15 µM
same,IC50,Cytochrome P450 2A5,5.5 µM
Brc1ccc2ccccc2c1,IC50,Cytochrome P450 2A6,0.55 µM
same,selectivity ratio,CYP2A6 / CYP2A5,0.22
same,IC50,Cytochrome P450 2A5,2.5 µM
Cc1cc2ccccc2cn1,IC50,Cytochrome P450 2A6,25 µM
same,selectivity ratio,CYP2A6 / CYP2A5,5.1
same,IC50,Cytochrome P450 2A5,4.8 µM
CN1CCC[C@@H]1c1cccnc1 [R-NICOTINE],IC50,Cytochrome P450 2A6,580 µM
same,selectivity ratio,CYP2A6 / CYP2A5,3.8
same,IC50,Cytochrome P450 2A5,160 µM
Clc1cccc2ccccc12,IC50,Cytochrome P450 2A6,18 µM
same,selectivity ratio,CYP2A6 / CYP2A5,1.3
same,IC50,Cytochrome P450 2A5,14 µM
Cc1ccc(C=O)cc1,IC50,Cytochrome P450 2A5,20.9 µM
CC(N)Cc1ccccc1 (stereo not drawn) [AMPHETAMINE],IC50,Cytochrome P450 2A6,3.5 µM
same,IC50,Cytochrome P450 2A5,2.85 µM
O=C1CCCc2ccccc21,IC50,Cytochrome P450 2A6,52 µM
same,selectivity ratio,CYP2A6 / CYP2A5,3.6
same,IC50,Cytochrome P450 2A5,14 µM
Clc1cc2ccccc2cc1Cl,IC50,Cytochrome P450 2A6,> 60 µM
same,IC50,Cytochrome P450 2A5,60 µM
Cc1cc(C)c2ccccc2n1,IC50,Cytochrome P450 2A6,830 µM
same,selectivity ratio,CYP2A6 / CYP2A5,7.7
same,IC50,Cytochrome P450 2A5,110 µM
Brc1ccc(Br)cc1,IC50,Cytochrome P450 2A6,59 µM
same,selectivity ratio,CYP2A6 / CYP2A5,48.5
same,IC50,Cytochrome P450 2A5,2.2 µM
Clc1cccc2c(Cl)cccc12,IC50,Cytochrome P450 2A6,2.5 µM
same,selectivity ratio,CYP2A6 / CYP2A5,1.04
same,IC50,Cytochrome P450 2A5,2.4 µM
Oc1ccc2ccccc2c1 [BETANAPHTHOL],IC50,Cytochrome P450 2A6,140 µM
same,selectivity ratio,CYP2A6 / CYP2A5,1.8
same,IC50,Cytochrome P450 2A5,78 µM
"Clc1ccc(Cl)cc1 [1,4-DICHLOROBENZENE]",IC50,Cytochrome P450 2A6,17 µM
same,selectivity ratio,CYP2A6 / CYP2A5,30.4
same,IC50,Cytochrome P450 2A5,1 µM
CCc1ccc2ccccc2c1,IC50,Cytochrome P450 2A6,12 µM
same,selectivity ratio,CYP2A6 / CYP2A5,2.4
same,IC50,Cytochrome P450 2A5,4.8 µM
c1ccc2c(c1)ccc1ccccc12 [PHENANTHRENE],IC50,Cytochrome P450 2A6,97 µM
same,selectivity ratio,CYP2A6 / CYP2A5,4
same,IC50,Cytochrome P450 2A5,26 µM
Clc1ccc(-c2ccccc2)cc1,IC50,Cytochrome P450 2A6,150 µM
same,selectivity ratio,CYP2A6 / CYP2A5,8.2
same,IC50,Cytochrome P450 2A5,18 µM
Fc1ccc2ccccc2c1,IC50,Cytochrome P450 2A6,0.67 µM
same,selectivity ratio,CYP2A6 / CYP2A5,0.09
same,IC50,Cytochrome P450 2A5,7.3 µM
Cc1ccc2ccc(C)nc2c1,IC50,Cytochrome P450 2A6,400 µM
same,selectivity ratio,CYP2A6 / CYP2A5,2.2
same,IC50,Cytochrome P450 2A5,180 µM
Oc1cccc2ccccc12 [1-NAPHTHOL],IC50,Cytochrome P450 2A6,130 µM
same,selectivity ratio,CYP2A6 / CYP2A5,0.96
same,IC50,Cytochrome P450 2A5,140 µM
Cc1cccc2ccccc12,IC50,Cytochrome P450 2A6,34 µM
same,selectivity ratio,CYP2A6 / CYP2A5,1.4
same,IC50,Cytochrome P450 2A5,24 µM
COc1ccc(C=O)cc1 [ANISALDEHYDE],IC50,Cytochrome P450 2A6,7.1 µM
same,IC50,Cytochrome P450 2A5,5.9 µM
c1ccc2ccccc2c1 [NAPHTHALENE],IC50,Cytochrome P450 2A6,25 µM
same,selectivity ratio,CYP2A6 / CYP2A5,0.34
same,IC50,Cytochrome P450 2A5,74 µM
B1,Km,[1],0.64 µM
